US9834571B2, “Compounds for inhibiting cell proliferation in EGFR-driven cancers” (ARIAD Pharmaceuticals, Inc., priority 2012, dated 2017)

What was measured:
[1] = target: human EGFR (native sequence) (Homo sapiens, UniProt P00533); assay: Kinase inhibitory activity against human EGFR (native sequence); type: biochemical; conditions: human EGFR native sequence; 10 μM ATP; read-out: IC50 for kinase inhibition, EGFR
Summary of the method: (§1)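 Testing covers a ten-concentration range beginning at 3 μM, performed once per concentration at an ATP level of 10 μM.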

[2] = target: EGFR L858R (Homo sapiens, UniProt P00533, L858R); assay: Kinase inhibitory activity against EGFR bearing the L858R mutation; type: biochemical; conditions: EGFR L858R; 10 μM ATP; read-out: IC50 for kinase inhibition, EGFR L858R
Summary of the method: as §1

[3] = target: EGFR L858R/T790M (Homo sapiens, UniProt P00533, L858R/T790M); assay: Kinase inhibitory activity against EGFR bearing the L858R/T790M double mutation; type: biochemical; conditions: EGFR L858R/T790M double mutation; 10 μM ATP; read-out: IC50 for kinase inhibition, EGFR L858R T790M
Summary of the method: as §1

[4] = target: T1, BaF3 cells expressing the target EGFR mutations (Homo sapiens, UniProt P00533, T790M, cells depend on it, form not given); assay: Antiproliferative activity (MTT) against BaF3 cells expressing the target EGFR mutations; type: cell-based; conditions: BAF3 EGFR DEL T790M PURO POOL cells, read-out: IC50, BAF3 EGFR DEL T790M PURO POOL
T1 construct: IC50, BAF3 EGFR DEL T790M PURO POOL; other: BAF3 EGFR DEL T790M PURO POOL cells, MTT; other: BAF3 EGFR DEL T790M PURO POOL cells; MTT
Summary of the method: (§2)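 MTT read-out; BaF3 lines carrying EGFR mutations vs wildtype-EGFR BaF3 control.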

[5] = target: T2, BaF3 cells expressing the target EGFR mutations (Homo sapiens, UniProt P00533, T790M/L858R, cells depend on it); assay: as above; type: cell-based; conditions: BAF3 EGFR L858R-T790M PURO POOL cells, read-out: IC50, BAF3 EGFR L858R-T790M PURO POOL
T2 construct: IC50, BAF3 EGFR L858R-T790M PURO POOL; other: BAF3 EGFR L858R-T790M PURO POOL cells, MTT; IC50, BAF3 EGFR L858R-T790M PURO POOL; other: BAF3 EGFR L858R-T790M PURO POOL cells; MTT
Summary of the method: as §2

[6] = test system: BaF3 cells expressing wildtype EGFR; assay: Antiproliferative activity (MTT) against control BaF3 cells expressing wildtype EGFR; type: cell-based; conditions: Mus musculus, BAF3 PARENTAL cells (control)
Summary of the method: as §2

Sequence of human EGFR (native sequence) (P00533 25-1210): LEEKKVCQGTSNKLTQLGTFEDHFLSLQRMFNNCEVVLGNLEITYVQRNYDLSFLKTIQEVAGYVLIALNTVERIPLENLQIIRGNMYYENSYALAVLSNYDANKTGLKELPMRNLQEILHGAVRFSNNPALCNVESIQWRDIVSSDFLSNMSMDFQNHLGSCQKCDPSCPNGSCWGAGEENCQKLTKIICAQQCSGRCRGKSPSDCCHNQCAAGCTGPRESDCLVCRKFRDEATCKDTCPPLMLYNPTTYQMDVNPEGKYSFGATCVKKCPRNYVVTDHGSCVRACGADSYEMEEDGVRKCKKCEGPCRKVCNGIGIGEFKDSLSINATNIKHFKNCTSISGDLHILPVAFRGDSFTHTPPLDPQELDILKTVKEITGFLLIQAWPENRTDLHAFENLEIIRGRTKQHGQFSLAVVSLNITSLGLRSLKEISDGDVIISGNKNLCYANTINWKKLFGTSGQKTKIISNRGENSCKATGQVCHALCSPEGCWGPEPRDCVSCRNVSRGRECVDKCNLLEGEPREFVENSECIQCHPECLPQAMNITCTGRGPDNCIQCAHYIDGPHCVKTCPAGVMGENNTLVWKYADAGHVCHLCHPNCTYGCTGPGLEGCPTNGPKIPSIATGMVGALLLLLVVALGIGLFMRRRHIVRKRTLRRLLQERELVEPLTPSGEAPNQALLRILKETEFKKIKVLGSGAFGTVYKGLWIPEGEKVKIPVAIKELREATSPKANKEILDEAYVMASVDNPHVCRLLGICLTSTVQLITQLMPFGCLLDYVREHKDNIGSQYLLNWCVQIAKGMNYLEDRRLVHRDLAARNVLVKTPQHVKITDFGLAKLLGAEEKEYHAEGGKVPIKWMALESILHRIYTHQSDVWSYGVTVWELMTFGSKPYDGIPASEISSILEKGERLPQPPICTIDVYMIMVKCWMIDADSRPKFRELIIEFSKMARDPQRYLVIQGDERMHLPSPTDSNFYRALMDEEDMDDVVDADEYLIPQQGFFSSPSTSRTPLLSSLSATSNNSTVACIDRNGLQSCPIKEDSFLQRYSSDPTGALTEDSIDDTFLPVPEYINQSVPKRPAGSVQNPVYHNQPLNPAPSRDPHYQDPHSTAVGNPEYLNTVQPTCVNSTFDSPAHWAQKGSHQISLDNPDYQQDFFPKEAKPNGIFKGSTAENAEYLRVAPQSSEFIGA
T1 sequence (P00533 with tags, fused parts or gaps DEL746-750/T790M, form open): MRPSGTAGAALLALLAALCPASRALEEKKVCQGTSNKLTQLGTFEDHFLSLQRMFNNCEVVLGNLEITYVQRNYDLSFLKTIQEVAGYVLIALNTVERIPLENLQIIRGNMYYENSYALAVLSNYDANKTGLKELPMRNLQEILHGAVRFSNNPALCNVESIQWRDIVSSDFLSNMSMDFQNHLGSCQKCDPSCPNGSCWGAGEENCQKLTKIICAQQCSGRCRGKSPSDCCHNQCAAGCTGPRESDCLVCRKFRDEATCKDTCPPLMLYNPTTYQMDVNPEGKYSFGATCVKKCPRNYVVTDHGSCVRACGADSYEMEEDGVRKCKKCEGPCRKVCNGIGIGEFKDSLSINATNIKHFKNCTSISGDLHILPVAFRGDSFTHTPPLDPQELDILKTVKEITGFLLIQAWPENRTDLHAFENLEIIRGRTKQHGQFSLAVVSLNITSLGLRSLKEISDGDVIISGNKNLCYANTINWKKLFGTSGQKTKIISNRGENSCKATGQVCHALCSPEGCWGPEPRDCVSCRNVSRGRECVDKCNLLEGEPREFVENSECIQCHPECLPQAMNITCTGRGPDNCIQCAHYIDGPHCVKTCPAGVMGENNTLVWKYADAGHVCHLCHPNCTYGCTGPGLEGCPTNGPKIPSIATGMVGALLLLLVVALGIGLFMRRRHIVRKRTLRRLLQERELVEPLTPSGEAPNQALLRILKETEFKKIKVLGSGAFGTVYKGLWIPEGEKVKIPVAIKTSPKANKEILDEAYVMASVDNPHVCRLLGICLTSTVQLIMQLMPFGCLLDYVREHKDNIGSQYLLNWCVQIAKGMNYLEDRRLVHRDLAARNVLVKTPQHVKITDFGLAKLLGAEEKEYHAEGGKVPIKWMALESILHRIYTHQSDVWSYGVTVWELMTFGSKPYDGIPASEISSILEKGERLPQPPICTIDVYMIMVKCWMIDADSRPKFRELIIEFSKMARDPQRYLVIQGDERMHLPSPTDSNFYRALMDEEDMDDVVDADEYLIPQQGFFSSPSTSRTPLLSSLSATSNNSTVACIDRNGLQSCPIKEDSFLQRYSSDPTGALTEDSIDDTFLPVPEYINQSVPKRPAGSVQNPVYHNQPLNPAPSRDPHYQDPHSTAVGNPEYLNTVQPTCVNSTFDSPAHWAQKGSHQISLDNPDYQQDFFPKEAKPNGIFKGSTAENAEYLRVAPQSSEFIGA
T2 sequence (P00533 whole entry T790M/L858R): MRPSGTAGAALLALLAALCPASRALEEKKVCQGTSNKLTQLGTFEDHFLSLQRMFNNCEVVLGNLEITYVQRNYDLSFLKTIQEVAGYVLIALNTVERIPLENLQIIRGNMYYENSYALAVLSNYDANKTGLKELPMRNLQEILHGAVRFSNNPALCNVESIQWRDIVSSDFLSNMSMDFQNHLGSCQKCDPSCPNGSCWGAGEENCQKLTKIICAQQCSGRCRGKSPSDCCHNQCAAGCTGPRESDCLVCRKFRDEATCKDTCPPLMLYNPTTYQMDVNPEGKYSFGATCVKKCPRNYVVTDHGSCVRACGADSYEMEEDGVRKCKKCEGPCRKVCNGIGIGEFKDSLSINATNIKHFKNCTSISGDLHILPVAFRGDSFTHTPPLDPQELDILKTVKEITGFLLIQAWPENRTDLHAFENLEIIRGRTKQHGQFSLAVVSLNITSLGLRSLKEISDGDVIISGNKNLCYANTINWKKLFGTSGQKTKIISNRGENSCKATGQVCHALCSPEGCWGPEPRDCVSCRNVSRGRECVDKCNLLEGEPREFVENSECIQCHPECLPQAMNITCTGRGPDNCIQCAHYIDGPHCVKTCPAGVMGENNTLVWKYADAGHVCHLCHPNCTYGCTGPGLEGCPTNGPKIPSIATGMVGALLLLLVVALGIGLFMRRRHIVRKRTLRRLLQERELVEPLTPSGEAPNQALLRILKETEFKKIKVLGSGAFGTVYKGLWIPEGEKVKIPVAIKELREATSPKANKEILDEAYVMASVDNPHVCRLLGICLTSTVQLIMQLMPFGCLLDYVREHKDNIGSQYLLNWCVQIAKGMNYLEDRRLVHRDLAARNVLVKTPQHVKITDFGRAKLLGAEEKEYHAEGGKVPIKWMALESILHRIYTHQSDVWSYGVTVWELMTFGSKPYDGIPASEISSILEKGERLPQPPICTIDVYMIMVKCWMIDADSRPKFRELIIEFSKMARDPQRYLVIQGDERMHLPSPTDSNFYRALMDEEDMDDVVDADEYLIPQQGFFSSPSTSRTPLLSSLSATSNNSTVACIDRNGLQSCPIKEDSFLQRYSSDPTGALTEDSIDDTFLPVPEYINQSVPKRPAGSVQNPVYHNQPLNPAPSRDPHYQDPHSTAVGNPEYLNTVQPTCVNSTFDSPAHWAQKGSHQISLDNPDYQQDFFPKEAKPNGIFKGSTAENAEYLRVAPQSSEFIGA
Sequence of EGFR L858R/T790M (P00533 25-1210 T790M/L858R): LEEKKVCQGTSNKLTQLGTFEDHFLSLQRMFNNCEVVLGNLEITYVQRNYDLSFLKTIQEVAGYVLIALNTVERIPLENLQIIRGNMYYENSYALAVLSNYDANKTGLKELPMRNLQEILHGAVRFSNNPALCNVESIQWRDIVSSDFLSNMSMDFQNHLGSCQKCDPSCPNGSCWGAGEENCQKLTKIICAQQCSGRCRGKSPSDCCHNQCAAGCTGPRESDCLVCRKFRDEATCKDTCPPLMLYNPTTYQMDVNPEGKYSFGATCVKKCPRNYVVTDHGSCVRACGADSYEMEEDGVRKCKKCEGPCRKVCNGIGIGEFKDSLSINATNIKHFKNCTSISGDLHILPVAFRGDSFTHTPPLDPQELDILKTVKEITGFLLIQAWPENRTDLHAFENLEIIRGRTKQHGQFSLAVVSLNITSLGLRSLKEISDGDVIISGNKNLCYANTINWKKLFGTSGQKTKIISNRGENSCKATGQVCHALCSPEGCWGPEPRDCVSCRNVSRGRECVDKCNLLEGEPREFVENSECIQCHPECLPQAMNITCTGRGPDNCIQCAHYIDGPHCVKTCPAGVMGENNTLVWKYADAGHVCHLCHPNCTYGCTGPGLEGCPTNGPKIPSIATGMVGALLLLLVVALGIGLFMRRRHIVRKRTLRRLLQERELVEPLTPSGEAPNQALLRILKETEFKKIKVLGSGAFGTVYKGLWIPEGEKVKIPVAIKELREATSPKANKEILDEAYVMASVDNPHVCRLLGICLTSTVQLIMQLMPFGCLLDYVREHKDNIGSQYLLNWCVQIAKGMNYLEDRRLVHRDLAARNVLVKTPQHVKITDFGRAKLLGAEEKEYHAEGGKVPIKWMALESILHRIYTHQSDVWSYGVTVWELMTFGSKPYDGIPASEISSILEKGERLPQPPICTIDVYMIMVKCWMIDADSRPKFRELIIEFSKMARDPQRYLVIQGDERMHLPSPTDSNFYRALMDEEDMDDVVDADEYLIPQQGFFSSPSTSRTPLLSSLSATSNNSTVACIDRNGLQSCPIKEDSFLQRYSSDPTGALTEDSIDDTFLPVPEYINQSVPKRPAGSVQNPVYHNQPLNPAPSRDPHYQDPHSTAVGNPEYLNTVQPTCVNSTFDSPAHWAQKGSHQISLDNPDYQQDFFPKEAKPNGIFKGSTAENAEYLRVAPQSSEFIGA

For `CCOC(=O)/C=C/C(=O)Nc1ccc(OC)c(Nc2ncc(Cl)c(Nc3ccccc3P(C)(C)=O)n2)c1` [Example 75, (E)-ethyl 4-((3-((5-chloro-4-((2-(dimethylphosphoryl)phenyl)amino)pyrimidin-2-yl)amino)-4-methoxyphenyl)amino)-4-oxobut-2-enoate], the IC50 [1] was under 50 nM, the IC50 [2] was under 50 nM and the IC50 [3] was under 50 nM. For the same compound, the GI50 [4] was under 50 nM, the GI50 [5] was under 50 nM and the IC50 [6] was at least 250 nM.
`COc1ccc(NC(=O)/C=C/C2(NC(=O)OC(C)(C)C)CC2)cc1Nc1ncc(Cl)c(Nc2ccccc2P(C)(C)=O)n1` [Example 76, (E)-tert-butyl (1-(3-((3-((5-chloro-4-((2-(dimethylphosphoryl)phenyl)amino)pyrimidin-2-yl)amino)-4-methoxyphenyl)amino)-3-oxoprop-1-en-1-yl)cyclopropyl)carbamate] was tested, and the IC50 [1] was at least 250 nM, the IC50 [2] was at least 250 nM and the IC50 [3] was at least 250 nM. For the same compound, the GI50 [4] was at least 250 nM, the GI50 [5] was at least 250 nM and the IC50 [6] was at least 250 nM.
`C=C(F)C(=O)Nc1ccc(OC)c(Nc2ncc(Cl)c(Nc3ccccc3P(C)(C)=O)n2)c1` [Example 77, N-(3-((5-chloro-4-((2-(dimethylphosphoryl)phenyl)amino)pyrimidin-2-yl)amino)-4-methoxyphenyl)-2-fluoroacrylamide] showed an IC50 [1] of at least 250 nM, an IC50 [2] of under 50 nM and an IC50 [3] of 50 to 100 nM. For the same compound, the GI50 [4] was under 50 nM, the GI50 [5] was 50 to 100 nM and the IC50 [6] was at least 250 nM.
For `COc1ccc(NC(=O)/C=C/Cl)cc1Nc1ncc(Cl)c(Nc2ccccc2P(C)(C)=O)n1` [Example 78, (E)-3-chloro-N-(3-((5-chloro-4-((2-(dimethylphosphoryl)phenyl)amino)pyrimidin-2-yl)amino)-4-methoxyphenyl)acrylamide], the IC50 [1] was under 50 nM, the IC50 [2] was under 50 nM and the IC50 [3] was under 50 nM. For the same compound, the GI50 [4] was under 50 nM, the GI50 [5] was under 50 nM and the IC50 [6] was at least 250 nM.
`COc1ccc(NC(=O)C2=CCCCC2)cc1Nc1ncc(Cl)c(Nc2ccccc2P(C)(C)=O)n1` [Example 79, N-(3-((5-chloro-4-((2-(dimethylphosphoryl)phenyl)amino)pyrimidin-2-yl)amino)-4-methoxyphenyl)cyclohex-1-enecarboxamide] was tested, and the IC50 [1] was at least 250 nM, the IC50 [2] was at least 250 nM and the IC50 [3] was at least 250 nM. For the same compound, the GI50 [4] was at least 250 nM, the GI50 [5] was at least 250 nM and the IC50 [6] was at least 250 nM.
`CC#CC(=O)Nc1cc(Nc2ncc(Cl)c(Nc3ccccc3P(C)(C)=O)n2)c(OC)cc1OCCN1CCCC1` [Example 80, N-(5-((5-chloro-4-((2-(dimethylphosphoryl)phenyl)amino)pyrimidin-2-yl)amino)-4-methoxy-2-(2-(pyrrolidin-1-yl)ethoxy)phenyl)but-2-ynamide] gave an IC50 [1] of at least 250 nM, an IC50 [2] of under 50 nM and an IC50 [3] of under 50 nM. It also gave a GI50 [4] of under 50 nM, a GI50 [5] of 101 to 250 nM and an IC50 [6] of at least 250 nM.
`COc1ccc(NC(=O)C#CCN(C)C)cc1Nc1ncc(Cl)c(Nc2ccccc2P(C)(C)=O)n1` [Example 81, N-(3-((5-chloro-4-((2-(dimethylphosphoryl)phenyl)amino)pyrimidin-2-yl)amino)-4-methoxyphenyl)-4-(dimethylamino)but-2-ynamide] gave an IC50 [1] of under 50 nM, an IC50 [2] of under 50 nM and an IC50 [3] of under 50 nM. It also gave a GI50 [4] of under 50 nM, a GI50 [5] of under 50 nM and an IC50 [6] of at least 250 nM.
Compound `C=C(C(=O)Nc1ccc(OC)c(Nc2ncc(Cl)c(Nc3ccccc3P(C)(C)=O)n2)c1)C(F)(F)F` [Example 82, N-(3-((5-chloro-4-((2-(dimethylphosphoryl)phenyl)amino)pyrimidin-2-yl)amino)-4-methoxyphenyl)-2-(trifluoromethyl)acrylamide] has an IC50 [1] of under 50 nM, an IC50 [2] of under 50 nM and an IC50 [3] of under 50 nM. It also gave a GI50 [4] of at least 250 nM, a GI50 [5] of at least 250 nM and an IC50 [6] of at least 250 nM.
With `COc1cc(P(C)(C)=O)ccc1Nc1ncc(Cl)c(Oc2cccc(NC(=O)C#CCN(C)C)c2)n1` [Example 83, N-(3-((5-chloro-2-((4-(dimethylphosphoryl)-2-methoxyphenyl)amino)pyrimidin-4-yl)oxy)phenyl)-4-(dimethylamino)but-2-ynamide] the IC50 [1] was under 50 nM, the IC50 [2] was under 50 nM and the IC50 [3] was under 50 nM. For the same compound, the GI50 [4] was 101 to 250 nM, the GI50 [5] was at least 250 nM and the IC50 [6] was at least 250 nM.
Compound `COc1ccc(NC(=O)C2=CCCN(C)C2)cc1Nc1ncc(Cl)c(Nc2ccccc2P(C)(C)=O)n1` [Example 84, N-(3-((5-chloro-4-((2-(dimethylphosphoryl)phenyl)amino)pyrimidin-2-yl)amino)-4-methoxyphenyl)-1-methyl-1,2,5,6-tetrahydropyridine-3-carboxamide] has an IC50 [1] of at least 250 nM, an IC50 [2] of under 50 nM and an IC50 [3] of under 50 nM. It also gave a GI50 [4] of at least 250 nM, a GI50 [5] of at least 250 nM and an IC50 [6] of at least 250 nM.
`COc1cc(F)c(NC(=O)/C=C/Cl)cc1Nc1ncc(Cl)c(Nc2ccccc2P(C)(C)=O)n1` [Example 85, (E)-3-chloro-N-(5-((5-chloro-4-((2-(dimethylphosphoryl)phenyl)amino)pyrimidin-2-yl)amino)-2-fluoro-4-methoxyphenyl)acrylamide] was tested, and the IC50 [1] was under 50 nM, the IC50 [2] was under 50 nM and the IC50 [3] was under 50 nM. It also gave a GI50 [4] of under 50 nM, a GI50 [5] of under 50 nM and an IC50 [6] of at least 250 nM.
`C=CC(=O)Nc1ccc(OC)c(Nc2ncc(Cl)c(Nc3ccc(OCCOC)cc3P(C)(C)=O)n2)c1` [Example 86, N-(3-((5-chloro-4-((2-(dimethylphosphoryl)-4-(2-methoxyethoxy)phenyl)amino)pyrimidin-2-yl)amino)-4-methoxyphenyl)acrylamide] showed an IC50 [1] of 50 to 100 nM, an IC50 [2] of under 50 nM and an IC50 [3] of under 50 nM. For the same compound, the GI50 [4] was under 50 nM, the GI50 [5] was 50 to 100 nM and the IC50 [6] was at least 250 nM.
With `COc1cc(F)c(NC(=O)C#CCN(C)C)cc1Nc1ncc(Cl)c(Nc2ccccc2P(C)(C)=O)n1` [Example 87, N-(5-((5-chloro-4-((2-(dimethylphosphoryl)phenyl)amino)pyrimidin-2-yl)amino)-2-fluoro-4-methoxyphenyl)-4-(dimethylamino)but-2-ynamide] the IC50 [1] was under 50 nM, the IC50 [2] was under 50 nM and the IC50 [3] was under 50 nM. It also gave a GI50 [4] of under 50 nM, a GI50 [5] of under 50 nM and an IC50 [6] of 101 to 250 nM.
With `COc1cc(F)c(NC(=O)C#CCCN2CCCCC2)cc1Nc1ncc(Cl)c(Nc2ccccc2P(C)(C)=O)n1` [Example 88, N-(5-((5-chloro-4-((2-(dimethylphosphoryl)phenyl)amino)pyrimidin-2-yl)amino)-2-fluoro-4-methoxyphenyl)-5-(piperidin-1-yl)pent-2-ynamide] the IC50 [1] was under 50 nM, the IC50 [2] was under 50 nM and the IC50 [3] was under 50 nM. It also gave a GI50 [4] of under 50 nM, a GI50 [5] of under 50 nM and an IC50 [6] of at least 250 nM.
`COc1cc(F)c(NC(=O)C#CCN2CCCC2)cc1Nc1ncc(Cl)c(Nc2ccccc2P(C)(C)=O)n1` [Example 89, N-(5-((5-chloro-4-((2-(dimethylphosphoryl)phenyl)amino)pyrimidin-2-yl)amino)-2-fluoro-4-methoxyphenyl)-4-(pyrrolidin-1-yl)but-2-ynamide] showed an IC50 [1] of under 50 nM, an IC50 [2] of under 50 nM and an IC50 [3] of under 50 nM. The GI50 [4] was under 50 nM, the GI50 [5] was under 50 nM and the IC50 [6] was at least 250 nM.
`COc1cc(F)c(NC(=O)C#CC(C)(C)N2CCCC2)cc1Nc1ncc(Cl)c(Nc2ccccc2P(C)(C)=O)n1` [Example 90, N-(5-((5-chloro-4-((2-(dimethylphosphoryl)phenyl)amino)pyrimidin-2-yl)amino)-2-fluoro-4-methoxyphenyl)-4-methyl-4-(pyrrolidin-1-yl)pent-2-ynamide] gave an IC50 [1] of under 50 nM, an IC50 [2] of under 50 nM and an IC50 [3] of under 50 nM. The GI50 [4] was under 50 nM, the GI50 [5] was under 50 nM and the IC50 [6] was at least 250 nM.
